We go through one substance from patent US12473250B2, “Molecular design of new antibiotics and antibiotic adjuvants against MCR strains” (priority 2019, dated 2025).

Assay [1] concerns colistin resistant MCR (−) E. Cloacae strain 7023456439. Put plainly: MIC, broth microdilution, compound alone. The assay is classed as cell-based. The settings on record: strain 7023456439 E. Cloacae. The method, boiled down: (§1)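 Wells held ~5×10^5 CFU/mL of bacteria prepared to 0.5 McFarland from overnight TSA colonies and exposed to serially diluted agents, following modified CLSI microdilution. After 24 h at 35 °C, growth judged by turbidity (OD600 possible); 99% inhibition sets the MIC.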

The test system of assay [2] is colistin resistant MCR (−) E. Coli strains. Put plainly: MIC, broth microdilution, compound alone. It is filed as cell-based. The procedure, abridged:
as §1
In general terms: In broth dilution the organism is exposed to a series of concentrations in liquid medium.

For assay [3], the system named is PAE strains (CRE strains, colistin sensitive). Put plainly: MIC of polymyxin B or colistin alone (Table 4). The assay is classed as cell-based, P. aeruginosa. The arrangement: unit: μg/mL. The method, then:
MIC experiments of the antimicrobial agents were determined by a modified broth microdilution method in accordance with the Clinical and Laboratory Standards Institute (CLSI) guidelines using 96 well culture plates. In brief, serial dilutions of all plates were prepared at different concentrations (μg). The inoculum suspension was prepared by adding isolated colonies from a 18-20 hours on TSA plate into phosphate buffer (0.31 mM, pH 7.2) or in water for injection (BBraun) and adjusting the suspension to a turbidity equivalent to 0.5 McFarland Standard. Each well contained a final bacterial concentration of approximately 5×10^5 colony forming units (CFU)/mL. The plate was covered and incubated at 35° C. for 24 hours. […] For the microdilution plates, turbidity in wells can be measured at OD600 using TECAN infinite M200Pro. MIC was determined as […] concentration that gives a 99 percent inhibition.

In general, MIC refers to the lowest concentration found to suppress growth. Regarding Colistin, the MIC in assay [1] worked out at 100 µg/mL; in assay [2] (strain 6083672926, MCR (−)), 12.5 µg/mL; in assay [2] (strain 7023446108, MCR (−)), 6.25 µg/mL; in assay [2] (strain 7033607097, MCR (−)), 6.25 µg/mL. Also, the “MIC (antibiotic alone)” value in assay [3] (strain PAE 4877), in assay [3] (strain PAE 5790) and in assay [3] (strain PAE 14476) was 1.56 each time.
